Assay results: patent US20250009707A1, “METHODS OF INDUCING KETOSIS IN NON-HUMAN MAMMALS” (BOPZ Nutrition Ltd., priority 2023, published 2025)

Key:
[1] = Serum/plasma BHB in fed canines, gastric gavage (Examples 2-4); type: in vivo, canines (beagles); conditions: 500 mg/kg
Protocol: Ketosis may be assessed quantitatively by measuring plasma beta-hydroxybutyrate (BHB) concentrations. Methods of measuring plasma BHB concentrations are known in the art. Non-limiting exemplary methods for measuring plasma BHB concentrations are provided in U.S. Pat. No. 10,562,839, which is hereby incorporated by reference in its entirety. Plasma BHB levels may be determined by a colorimetric enzymatic assay (Stanbio Laboratory 2440-058).
(§1) A group of 6 beagles was evaluated per tested compound of the disclosure. In a first period, the canines were administered 250 mg/kg of C8-BHB. In a second period, the canines were administered 500 mg/kg of C8-BHB. In a third period, the canines were administered MCT at a dose of 5.5%. In a fourth period, the canines were administered 125 mg/kg of C8-BHB. A washout period of 7 days was provided between each of the first, second, third, and fourth periods.
(§2) Following the tolerability results of Example 1, the canines were fed, and the compound was administered by gastric gavage in subsequent examples.
In each of the first, second, third, and fourth period, serum was sampled prior to administration of the compound, then at minute 15, 30, 45, 60, 75, 90, 120, 180, 240, and 300. Serum was sampled for BHB analysis.
(§3) If emesis occurred 60 minutes from administration of the compound, serum BHB content was not analyzed.
C8-BHB and C8×2-BD were selected as exemplary compounds of the disclosure for administration to canines according to the method of Example 2. Each exemplary compound was administered to 6 canines.
To further evaluate the potential of the compounds of the disclosure for inducing ketosis in canines, the compounds and MCTs were administered to the same canines, as described in Example 2.

[2] = Tolerability (emesis) in fasted canines, sublingual gavage (Example 1); type: in vivo; conditions: 250 mg/kg
Protocol: Example 1 provides a method by which compounds of the disclosure were evaluated in a first study, wherein dogs were fasted and the compounds were administered by sublingual gavage.
In a first period, a group of 12 canines (beagles) were administered 5.5% MCT in a first period, and 250 mg/kg C8-BHB in a second period. A 7 day washout period was provided between the first and second periods.
The canines were fasted, and the C8-BHB or MCTs was administered by sublingual gavage.
(§4) In each of the first, second, third, and fourth period, pathology samples were taken prior to administration of the compound, then at minute 20, 60, 90, 120, 180, 240, and 300.
Where emesis occurred before 60 minutes from dosing, serum BHB content was not analyzed.
Where emesis occurred at or after 60 minutes from dosing and before 300 minutes from dosing, Cmax was calculated but AUC was not calculated.

[3] = Tolerability in fed canines, gastric gavage (Example 2); type: in vivo
Protocol: as §1, §2, §4, §3

SMILES | BHB Cmax [1] [mM] | BHB Tmax [1] [min] | Tolerability compared to MCTs (FIG. 1B) [2] | Tolerability compared to MCTs (FIGS. 2A-D) ([3]; fed canines, gastric gavage, doses of 125, 250 and 500 mg/kg) | Canines tolerating the substance ([3]; fed state, overall) [%]
CCCCCCCC(=O)OCC[C@@H](C)OC(=O)CCCCCCC [C8×2-BD, bis-octanoyl-1,3-butanediol] | 0.70 | 57 |  |  | 
CCCCCCCC(=O)O[C@H](C)CC(=O)OCC [C8-BHB, octanoyl-ethyl-3-hydroxybutyrate] | 1.00 | 51 | better tolerated | improved tolerability | 83
